Measurements reported in patent US4968706A, “Ethers and thioethers having therapeutical activity, their preparation and pharmaceutical compositions containing them” (priority 1987, dated 1990).

Assays:
[1] = test system: hyperreactive spasmus induced by acetylcholine challenge; assay: Hyperreactive spasmus induced by acetylcholine challenge in anaesthetized guinea-pigs submitted to forced tobacco-smoking respiration; assay type: in vivo; details: for activity as reference substance in the acetylcholine challenge procedure: i.m. administration
[2] = test system: tracheo-bronchial mucus secretion; assay: Uranine secretion in BAL (mucus secretion); assay type: in vivo, Albino Swiss female mice
Method: (§1) The ability of a drug to modify the tracheo-bronchial mucus secretion is evaluated measuring the excretion of a dyestuff in the respiratory tree.
The animals are sacrified 30 minutes after; the respiratory tree is excised and accurately washed. The washing fluids (BAL) are collected and evaluated for the uranine content using a spectrofluorimetric technique.
(§2) Albino Swiss male mice are used in this test and the animals are killed 30 minutes after dye treatment. The dye content in BAL's is evaluated spectrometrically at 546 nm.

[3] = test system: tracheo-bronchial mucus secretion; assay: Red phenol secretion in BAL (mucus secretion); assay type: in vivo, Albino Swiss male mice
Method: as §1, §2
An increased red phenol secretion in BAL's after drug treatment means stimulation of mucus production.

[4] = test system: tracheo-bronchial mucus secretion; assay: Time-course of red phenol excretion (long-lasting action); assay type: in vivo, Albino Swiss male mice
Method: as §2
Infact, a substance can be administered 2, 1 and 1/2 hours before the intraperitoneal administration of the red phenol marker. If the animals are killed, as usual, half an hour after the dyestuff treatment, the overall time of drug action increases from 1 hr to 11/2 and 21/2 hrs respectively.

[5] = test system: tracheo-bronchial mucus secretion; details: known effect of therapeutically active drugs; cited from earlier work
[6] = 100 mg/kg os, overall experiment 1 1/2 hours
[7] = 100 mg/kg os, overall experiment 2 1/2 hours
[8] = 100 mg/kg os, overall experiment 1 hour

| Structure (SMILES) | activity as reference substance in the acetylcholine challenge procedure [1] | % increase of dyestuff secretion in BAL (vs. untreated animals), uranine ([2]; 25 mg/kg os) [%] | % increase of dyestuff secretion in BAL (vs. untreated animals), uranine ([2]; 50 mg/kg os) [%] | % increase of dyestuff secretion in BAL (vs. untreated animals), uranine ([2]; 100 mg/kg os) [%] | % increase of dyestuff secretion in BAL (vs. untreated animals), red phenol ([3]; 25 mg/kg os) [%] | % increase of dyestuff secretion in BAL (vs. untreated animals), red phenol ([3]; 50 mg/kg os) [%] | % increase of dyestuff secretion in BAL (vs. untreated animals), red phenol ([3]; 100 mg/kg os) [%] | Time-course of % increase of red phenol excretion (vs. untreated animals) [4, 6] [%] | Time-course of % increase of red phenol excretion (vs. untreated animals) [4, 7] [%] | Time-course of % increase of red phenol excretion (vs. untreated animals) [4, 8] [%] | reduction of hyperreactive spasmus induced by acetylcholine challenge ([1]; e.v. treatment, 5 to 30 mg/kg, forced tobacco-smoking respiration) | uranine content in the BAL's in respect to control values (in words) [5] | % increase of dyestuff secretion in BAL (vs. untreated animals), uranine ([2]; 200 mg/kg os) [%] | % increase of dyestuff secretion in BAL (vs. untreated animals), red phenol ([3]; 200 mg/kg os) [%] | Time-course of % increase of red phenol excretion (vs. untreated animals) ([4]; 200 mg/kg os, overall experiment 1 1/2 hours) [%] | Time-course of % increase of red phenol excretion (vs. untreated animals) ([4]; 200 mg/kg os, overall experiment 2 1/2 hours) [%] | Time-course of % increase of red phenol excretion (vs. untreated animals) ([4]; 200 mg/kg os, overall experiment 1 hour) [%] |
| --- | --- | --- | --- | --- | --- | --- | --- | --- | --- | --- | --- | --- | --- | --- | --- | --- | --- |
| C[C@H]1C[C@@H]2[C@H]([C@@H](O)C[C@@]3(C)[C@H]2CC[C@]3(O)C(=O)CO)[C@@]2(C)C=CC(=O)C=C12 [6-α-methylprednisolone] | Positive |  |  |  |  |  |  |  |  |  |  |  |  |  |  |  |  |
| COc1ccccc1OCCSCC(=O)O [Substance A, 3-thia-5-(2-methoxy-phenoxy)-pentanoic acid] |  | 45 | 98 | 138 | 25 | 50 | 104 | 98 | 62 | 104 |  |  |  |  |  |  |  |
| COc1ccccc1OCCSCC(=O)NCc1cccnc1 [Substance B, N-(3-pyridyl)methy 1-3-thia-5 (2-methoxy-phenoxy)pentanoic acid amide] |  | 70 | 140 | 190 | 12 | 73 | 126 | 119 | 62 | 126 | able to reduce the hyperreactive spasmus induced by acetylcholine challenge in dose dependent way |  |  |  |  |  |  |
| COc1ccccc1OCC1COC(CSCC(=O)O)O1 (centres unmarked) [Substance C, 3-thia-4-[4-(2-methoxy-phenoxy)methyl-(Z,E)-dioxolan-2-yl]-butanoic acid] |  | 25 | 52 | 101 | 47 | 83 | 143 | 72 | 42 | 143 |  |  |  |  |  |  |  |
| COc1ccccc1OCC1COC(CSCC(=O)NCc2cccnc2)O1 (centres unmarked) [Substance D, N-(3-pyridyl)methyl-3-thia-4-[4-(2-methoxy-phenoxy)-methyl-(Z,E)-(1,3)-dioxolan-2-yl]-butanoic acid amide] |  | 66 | 132 | 284 | 49 | 120 | 179 | 111 | 58 | 179 |  |  |  |  |  |  |  |
| CN(Cc1cc(Br)cc(Br)c1N)C1CCCCC1 [Substance E, bromexine, reference compound] |  | 0 | 50 | 63 | 28 | 69 | 83 | 61 | 21 | 98 |  | increase the uranine content in the BAL's in a dose dependent way |  |  |  |  |  |
| CC1=CCC(C(C)(C)O)CC1O (centres unmarked) [Substance F, sobrerol, reference compound] |  |  | 54 | 104 |  | 48 | 69 |  |  |  |  | increase the uranine content in the BAL's in a dose dependent way | 144 | 111 | 73 | 30 | 108 |
| O=C(O)c1cc(=O)c2c(OCC(O)COc3cccc4oc(C(=O)O)cc(=O)c34)cccc2o1 [sodium dichromoglicate] | Positive |  |  |  |  |  |  |  |  |  |  |  |  |  |  |  |  |
